Results published in ChEMBL document CHEMBL1140594, “Farnesyltransferase pharmacophore model derived from diverse classes of inhibitors” (Bioorg Med Chem Lett, 2007).
pIC50: −log10 of the molar value.

Test: Inhibition of FTase

Row | SMILES | pIC50
1 | N#Cc1ccc(Cn2ccnc2)cc1Oc1cccc(C2CCCCNC2=O)c1 (stereo not given) | 7.39
2 | CC[C@@H](C)[C@@H](CO[C@@H](Cc1ccccc1)C(=O)N[C@@H](CCS(C)(=O)=O)C(=O)O)NC[C@@H](N)CS | 8.74
3 | CN1CCN(C(=O)c2cn(Cc3cncn3Cc3ccc4c(c3)OCO4)cc2-c2cccc3ccccc23)CC1 | 8.62
4 | Fc1ccc2c(c1)[C@@H](OCc1ccc(Cl)cc1Cl)[C@@H](Cn1ccnc1)S2 | 6.15
5 | CN1CCC(C2c3ccccc3CCc3cccnc32)CC1 (stereo not given) | 3.14
6 | CC(C)CCCC(C)C1CCC2C3C(CC[C@]12C)[C@@](C)(C[C@@H](CC(=O)O)C(=O)O)C(=O)C[C@@H]3C (stereo not given in full) | 7.40
7 | CC(=O)OCC(=O)[C@@]1(O)C(C)CC2C3CCC4=CC(=O)C=C[C@]4(C)C3=CC[C@@]21C (stereo not given in full) | 4.40
8 | N#Cc1ccc(Cn2cncc2CN2CCN(c3ccccc3)C(=O)C2)cc1 | 8.30
9 | Cn1cncc1C(OCc1ccc(C#N)cc1NC(=O)c1ccccc1)c1ccc(C#N)cc1 (stereo not given) | 8.30
10 | CC[C@@H](C)[C@@H](CN(CC(=O)N[C@@H](CCSC)C(=O)O)Cc1cccc2ccccc12)NC(=O)Cc1cncn1Cc1ccc(C#N)cc1 | 9.82
11 | CSCC[C@H](NC(=O)c1cccc2cc(NC[C@H](N)CS)ccc12)C(=O)O | 7.74
12 | COC(=O)[C@H](CCSC)NC(=O)c1cccc2cc(NC[C@H](N)CS)ccc12 | 6.30
13 | COc1ccccc1CC(=O)N1C[C@@H]2[C@@H]3CC[C@@](c4ccccc4)(c4ccccc43)[C@@H]2C1 | 4.40
14 | O=C1CN(Cc2cncn2Cc2cccc(Oc3ccccc3)c2)CCN1c1ccc(C(F)(F)F)cc1 | 5.24
15 | N#Cc1ccc(Cn2cncc2CN2CCN(c3cccc(Cl)c3)C(=O)C2)cc1Oc1ccc2ccccc2c1 | 9.00
16 | CC[C@@H](C)[C@@H](CN(CC(=O)N[C@@H](CCSC)C(=O)O)Cc1cccc2ccccc12)NC(=O)Cc1cn(Cc2ccncc2)cn1 | 7.13
17 | CCCC[C@H]1CN(C(=O)c2cccc3ccccc23)CCN1Cc1cncn1Cc1ccc(C#N)cc1 | 7.68
18 | Cc1cccc2c1[C@@H](O)[C@@H](Cn1ccnc1)S2 | 3.57
19 | CCCC[C@H]1CN(c2ccc(Cl)cc2)C(=O)CN1Cc1cncn1Cc1ccc(C#N)cc1 | 9.36
20 | CC[C@]1(c2cccc(Oc3cc([C@@](C)(N)c4cncn4C)ccc3C#N)c2)CCCCN(C)C1=O | 8.82
21 | CC[C@@]1(c2cccc(Oc3cc([C@@](C)(N)c4cncn4C)ccc3C#N)c2)CCCCN(C)C1=O | 10.22
22 | C=C(C(=O)N1C[C@H]2[C@@]3(c4ccc(C)cc4)CC[C@H](c4ccccc43)[C@@]2(C(=O)O)C1)c1ccccc1OC | 8.10
23 | N#Cc1ccc2cc1Oc1ccc3cccc(c3c1)N1CCN(CC1=O)Cc1cncn1C2 | 10.00
24 | O=C(Cc1ccncc1)N1CCN([C@H]2c3ccc(Cl)cc3CCc3cccnc32)CC1 | 6.85
25 | CC[C@@H](C)[C@@H](CO[C@@H](Cc1ccccc1)C(=O)N[C@@H](CCS(C)(=O)=O)C(=O)OC)NC[C@@H](N)CS | 6.62
